Results as given in PMC2362044, “A potent nonporphyrin class of photodynamic therapeutic agent: cellular localisation, cytotoxic potential and influence of hypoxia” (British Journal of Cancer, 2005).
Like-named read-outs stand apart in the source and are kept apart here.

Key:
HeLa cells [1] = experiment: Subcellular localisation by confocal laser-scanning microscopy; type: cell-based, human; conditions: 1 × 10^−5 M, 1 h
Procedure: Cells, grown on eight-well chamber slides (Nunc), were incubated in the dark at 37°C with 1 × 10^−5 M ADPM01 for 1 h. The medium was removed and the cells then treated with 250 nM MitoTracker Green (Molecular Probes) or 100 nM ER Tracker Blue (Molecular Probes) for 25 min. Prior to visualisation, excess probe was washed off by rinsing in PBS four times and cells were fixed in 3.7% formaldehyde/PBS. Cells were mounted as above and image analysis was performed using a LSM510 META confocal laser-scanning microscope (Zeiss) equipped with an × 40 numerical aperture 1.0 objective, with a pinhole of 100 μm in diameter being used to capture each image at a resolution of 512 × 512 pixels. MitoTracker Green was excited by a 488 nm argon laser and ER Tracker Blue was excited by a UV laser (364 nm), while ADPM01 was excited by a 543 nm helium neon laser. For simultaneous detection of MitoTracker Green and ADPM01, a 560 nm long pass filter was used in channel 1 (red) for ADPM01, while a 505–530 nm band pass filter was used in channel 2 (green) for MitoTracker Green. For dual detection of ER Tracker Blue and ADPM01, a long pass filter of 560 nm was used in channel 1 (red) for ADPM01 and a 385–470 nm band pass filter was used in channel 2 (blue) for ER Tracker Blue. […]

MRC5 cells [2] = experiment: MTT cell viability assay under hypoxic conditions (1% oxygen); type: cell-based, human; conditions: MRC5, hypoxia 1% oxygen; for EC50: Homo sapiens
Procedure: (§1) Cells were exposed to low oxygen conditions in a hypoxia chamber (Coy Labs). Exponentially growing cells plus media were equilibrated in the hypoxia chamber for 24 h. The hypoxia chamber consisted of an airtight glove box, with the atmosphere continuously monitored by an oxygen analyser. An oxygen concentration of 1% was maintained throughout the chamber, with the balance comprised of 5% CO2, nitrogen and water vapour from a humidified chamber.
(§2) Cells were seeded in 96-well flat-bottomed microtitre plates (5000 cells well^−1) and incubated at 37°C in a 5% CO2 incubator for 24 h. Cells were then incubated with varying concentrations of photosensitiser (1 × 10^−9 to 1 × 10^−4 M) in the dark for 3 h at 37°C. The ADPM compound-laden medium was then removed, the cells were washed with PBS and fresh culture medium was added to each well. This was followed by light irradiation with a broad-spectrum red light source (600–750 nm) via a Waldmann PDT1200L light delivery system. For this study, fluences (light exposures) of either 8 or 16 J cm^−2, at a dose rate of 80 mW cm^−2, were used. Following irradiation, the cells were incubated for a further 48 h before being assessed for cell viability by a standard MTT assay (Sigma). The subsequent colour change produced by viable cells was quantified using a plate reader (VICTOR^2 1420 multilabel HTS counter, Wallac). […] The dark toxicity of each compound was also assessed.
(§3) For cell viability experiments performed under hypoxic conditions, cells were cultured in a hypoxia chamber as described above. Varying concentrations of ADPM compounds were made using medium equilibrated within the hypoxic environment. After 3 h, the medium containing photosensitiser was removed, the cells were washed with PBS to remove excess compound and fresh, equilibrated medium was added to each well. This was followed by light irradiation under hypoxic conditions with the broad-spectrum red light source as before.
(§4) Prism ([…]) was used to graph the data obtained from the MTT assays and the uptake/clearance experiments. This program allows nonlinear regression analysis and the generation of sigmoidal dose–response curves. Prism also automatically calculates EC50 values. Statistical analysis was performed using the ANOVA test (Prism). Significant differences were detected using the Bonferroni multiple comparison test. P-values <0.05 were considered statistically significant.

HeLa cells [3] = experiment: as above; type: cell-based, human; conditions: hypoxia 1% oxygen; for EC50: Homo sapiens
Procedure: as §1, §2, §3, §4

MRC5 cells [4] = experiment: Cellular uptake and clearance (fluorescence microscopy); type: cell-based, human; conditions: MRC-5, 1 × 10^−5 M for 3 h, then drug removed
Procedure: (§5) Cells were seeded at 30 000 cells well^−1 in chamber slides and allowed to adhere for 24 h. For the uptake studies, ADPM01 (1 × 10^−5 M) was then added to each chamber and incubated at 37°C in the dark. Following appropriate incubation periods (5 min–6 h), the cells were washed four times with media to remove all free photosensitisers. The cells were then fixed with 3.7% formaldehyde/PBS for 15 min at 37°C, after which the cells were washed twice with PBS. Mounting fluid (Vectashield) and a coverslip were then placed on each slide. […] In this case, the cells were fixed at various time points (15 min – 24 h) after removal of the drug. The slides were then viewed using an Axio fluorescent microscope (Zeiss). A DAPI filter (Band pass 356) was used to accurately count the number of cells in each field of view and a rhodamine filter (Long pass 590) was used to quantify fluorescence from ADPM01. LabWorks version 4.0 (Bioimaging Systems) was used to calculate the average fluorescence intensity of ADPM01 per cell.
as §4

HeLa cells [5] = experiment: as above; type: cell-based, human
Procedure: as §5, §4

human tumour cell lines = experiment: Light-induced toxicity (MTT) assays over a broad range of cell lines; type: cell-based; conditions: for EC50: Homo sapiens, read-out: EC50 values, range between the different cell lines; for EC50 values, light-induced toxicity (in words): broad range of human tumour cell lines
Procedure: All cell lines unless otherwise stated were obtained from the American Type Culture Collection. HeLa, MRC5, HT-1080, MDA-MB-231, MCF-7 and T47-D cells were cultured in minimum essential medium (MEM) supplemented with 10% (v v^−1) foetal calf serum (FCS), 1% (v v^−1) non-essential amino acids, 50 U ml^−1 penicillin, 50 μg ml^−1 streptomycin, 20 mM HEPES and 1% (v v^−1) L-glutamine (Gibco-BRL). SW480, SW620 (obtained from Professor D Croke, Royal College of Surgeons, Dublin), A2780 and A2780cp70 cells (Obtained from Professor R Brown, Cancer Research UK, Beatson Laboratories, Glasgow) were cultured in RPMI-1640 medium plus the above-mentioned supplements. All cells were maintained in 5% CO2 (v v^−1) and 21% O2 (v v^−1) at 37°C unless otherwise stated.
as §2, §4

[6] = 0 J cm^−2, read-out: EC50 (M) (dark)
[7] = 8 J cm^−2, read-out: EC50 (M) (8 J cm^−2)
[8] = 16 J cm^−2, read-out: EC50 (M) (16 J cm^−2)
[9] = 8 J cm^−2, all cell lines of Table 1
[10] = 16 J cm^−2, all cell lines of Table 1

Question: Which “co-localisation with endoplasmic reticulum (ER Tracker Blue)” value (HeLa cells [1]) does the source give for `F[B-]1(F)n2c(-c3ccccc3)cc(-c3ccccc3)c2N=C2C(c3ccccc3)=CC(c3ccccc3)=[N+]21` [ADPM01] here?
Answer: more striking co-localisation

Question: And the EC50 (MRC5 cells [2]; [6])?
Answer: > 0.0001 M

Question: What about the EC50 (MRC5 cells [2]; [7]) of the same molecule?
Answer: > 0.0001 M

Question: What about the EC50 (MRC5 cells [2]; [8]) of the same molecule?
Answer: > 0.0001 M

Question: And the “efficacy (light-induced activity) at 1% oxygen level vs normoxia” value (from here on “efficacy … at 1% oxygen level vs normoxia”) (MRC5 cells [2])?
Answer: completely ablated

Question: And the EC50 (HeLa cells [3]; [6])?
Answer: > 0.0001 M

Question: And the EC50 (HeLa cells [3]; [7])?
Answer: > 0.0001 M

Question: And the EC50 (HeLa cells [3]; [8])?
Answer: > 0.0001 M

Question: What about the “efficacy … at 1% oxygen level vs normoxia” value (HeLa cells [3]) of the same molecule?
Answer: completely ablated

Question: What about the “retention 3 h post-withdrawal (clearance)” value (MRC5 cells [4]) of the same molecule?
Answer: 74%

Question: And the “retention at 3 h post-withdrawal (clearance)” value (HeLa cells [5]; 1 × 10^−5 M for 3 h, then drug removed)?
Answer: 42%

Question: And the “cellular uptake, accumulated by 3 h” value (HeLa cells [5]; 1 × 10^−5 M, 37°C in the dark, 6 h period)?
Answer: > 90%

Question: What about the EC50 (human tumour cell lines; [9]) of the same molecule?
Answer: 2.8 to 34 µM

Question: And the EC50 (human tumour cell lines; [10])?
Answer: 0.26 to 22 µM

Question: And the “EC50 values, light-induced toxicity (in words)” value (human tumour cell lines)?
Answer: micro-molar range

Question: For `COc1ccc(C2=[N+]3C(=Nc4c(-c5ccccc5)c(Br)c(-c5ccc(OC)cc5)n4[B-]3(F)F)C(c3ccccc3)=C2Br)cc1` [ADPM06], which EC50 (MRC5 cells [2]; [6]) is on record?
Answer: > 0.0001 M

Question: And the EC50 (MRC5 cells [2]; [7])?
Answer: 7.1e-06 M

Question: And the EC50 (MRC5 cells [2]; [8])?
Answer: 1.6e-06 M

Question: And the “efficacy … at 1% oxygen level vs normoxia” value (MRC5 cells [2])?
Answer: only a partial reduction in light-induced activity

Question: What about the EC50 (HeLa cells [3]; [6]) of the same molecule?
Answer: > 0.0001 M

Question: What about the EC50 (HeLa cells [3]; [7]) of the same molecule?
Answer: 6.1e-06 M

Question: And the EC50 (HeLa cells [3]; [8])?
Answer: 1.5e-06 M

Question: And the “efficacy … at 1% oxygen level vs normoxia” value (HeLa cells [3])?
Answer: only a partial reduction in light-induced activity

Question: And the EC50 (human tumour cell lines; [9])?
Answer: 0.037 to 5.4 µM

Question: And the EC50 (human tumour cell lines; [10])?
Answer: 0.014 to 0.63 µM

Question: What about the “EC50 values, light-induced toxicity (in words)” value (human tumour cell lines) of the same molecule?
Answer: nano-molar range
